Measured values from PMC4172726, “3-Dimensional Culture Systems for Anti-Cancer Compound Profiling and High-Throughput Screening Reveal Increases in EGFR Inhibitor-Mediated Cytotoxicity Compared to Monolayer Culture Systems” (PLoS ONE, 2014).
Where two headings read alike, the source gives them in different places.

Key:
BT-474 cells [1] = test: Single concentration primary screen of ADC library, ATP content, BT-474 cells 2D and 3D; settings: 5 µM; for selectivity for BT-474 cells over MCF-10A cells in primary screen: 3D culture conditions; for hit in primary screen (decreasing ATP content by 50% or more compared to vehicle treated cells): BT-474 tumor cells, 48 h, 2D and 3D
[2] = tested on: wild type K-Ras colon cancer cells; set-up: method as in PMID 23555746; settings: 3D spheroids in laminin-rich extracellular matrix, concomitant reduction in EGFR levels; cited from earlier work
MCF-10A cells [3] = test: Single concentration primary screen of ADC library, ATP content, MCF-10A cells 2D and 3D; format: cell-based, human; settings: MCF-10A normal cells, 5 µM, 48 h
Method: For single concentration point primary screens, the BT-474 cells were seeded at 3000 cells/well (in RPMI+10% FBS+PSG medium) and the MCF-10A cells at 1000 cells per well (in 50/50 DMEM/F12, 5% FHS, 0.5 µg/mL hydrocortisone, 5 µg/mL insulin, 5 ng/mL rhEGF, PSG) in 96-well Corning #3595 (for 2D) or Corning #7007 (for 3D) plates. Dilution plates were made by diluting the compounds 1∶1 with 50% medium/50% DMSO to yield a final concentration of 5 µM per well.

BT-474 cells [4] = test: Cytotoxicity concentration-response assay (CellTiter GLO, cellular ATP) in BT-474 cells cultured in 2D or 3D
MCF-10A cells [5] = test: Cytotoxicity concentration-response assay (CellTiter GLO, cellular ATP) in MCF-10A cells cultured in 2D or 3D; format: cell-based, human; settings: MCF-10A 3D spheroid, 48 h treatment, read-out: EC50 (concentration at which the compound reduces cell viability by 50%)
Method: To generate 3D miniature cultures for HTS, cells were seeded at a cell number observed to consistently form a single, uniformly round spheroid.
(§1) To quantitate cellular ATP as a measure of viability, 50 µL of CellTiter GLO reagent (Promega) was added to each well. […] In addition, spheroids were triturated six times to promote complete lysis.

HF+HE co-cultures = test: Concentration-response cell viability assay (CellTiterGLO) in HF+HE co-cultures; format: cell-based, human; settings: for EC50: Homo sapiens, 48 h, 15-point concentration response
Method: (§2) For co-cultures in 3D, trypsinized cells were counted and mixed together to be seeded into 96-well round-bottom ultralow attachment plates (Corning #7007). As indicated in the legends, either the total cell number was held at 3000 cells per well, or 3000 BT-474 cells were seeded together with 1500 HFs and/or HUVECs. As we observed with the monotypic spheroids, the co-cultures also spontaneously formed one spheroid per well during the 48-hour incubation period. By analysis of ATP levels, the co-culture spheroids were viable for 5 days without a medium change or addition of supplements. All the co-cultures were maintained in a 1∶1∶1 mixture of RPMI:DMEM:EGM-2 complete media. The 2D co-cultures were plated at the same ratio of cells in the same mixed medium, but in flat bottom 96-well tissue culture plates (Corning #3595). Forty-eight hours after plating, the 2D or 3D cells were used for cytotoxicity assays, screening, or immunostaining as described in subsequent Methods sections.
as §1
(§3) For the co-culture screens, serial dilution primary screening was used. The cells were seeded in 96-well plates at 1500 HF+1500 HUVEC cells per well for the human fibroblast and human endothelial cell (HF+HE) co-cultures (in EGM-2 complete medium), or 750 HF+750 HUVEC+1500 BT-474 for the BT-474+HF+HE co-cultures (in 1∶1 RPMI+10% FBS+PSG: EGM-2 complete medium). Cells seeded in Corning #7007 round bottom, ultra-low attachment plates formed a single 3D spheroid per well while cells seeded in Corning #3595 flat bottom, tissue culture-treated plates attached as a 2D monolayer. […] Spheroid lysis was further aided by mixing 100 µl of volume using the STAR liquid handler, and then 75 µl was transferred to a Greiner Lumitrac 96-well plate for luminescence reading on a PE Envision plate reader. For the monolayer plates, 75 µl was transferred to the Greiner Lumitrac plates per well, and also read on the PE Envision.

[6] = tested on: HF cells cultured as 3D spheroids; test: Cell viability assay of HF spheroids (Figure S1A)
Method: All spheroids were cultured and treated as in Figure 3A–B. Figure represents 2 experiments performed in duplicate and table utilizes EC50 values from Figure 3 as a direct comparison. B, immunofluorescent and brightfield overlay images of BT-474 cells (3 k cells, brightfield), HEs (1 k cells, green) and HFs (1 k cells, red) cultured as spheroids for 48 h before addition of vehicle (0.1% DMSO, left panel) or 10 µM Lapatinib for 48 h (right panel).

BT-474+HF+HE co-cultures = test: Concentration-response cell viability assay (CellTiterGLO) in BT-474+HF+HE co-cultures; format: cell-based, human; settings: for EC50: Homo sapiens, 48 h, 15-point concentration response
Method: as §2, §1, §3

[7] = Homo sapiens, BT-474, 48 h, read-out: EC50 (concentration at which the compound reduces cell viability by 50%), BT-474 3D spheroid, 48 h treatment

| Structure (SMILES) | selectivity for BT-474 cells over MCF-10A cells in primary screen (BT-474 cells [1]) | hit in primary screen (decreasing ATP content by 50% or more compared to vehicle treated cells) (MCF-10A cells [3]) | EC50 (BT-474 cells [4]; [7]) [µM] | hit in primary screen (decreasing ATP content by 50% or more compared to vehicle treated cells) (BT-474 cells [1]) | EC50 (MCF-10A cells [5]; Homo sapiens, MCF-10A, 48 h) [µM] | further results |
| --- | --- | --- | --- | --- | --- | --- |
| CC[C@]1(O)C[C@@H]2CN(CCc3c([nH]c4ccccc34)[C@@](C(=O)OC)(c3cc4c(cc3OC)N(C)[C@H]3[C@@](O)(C(=O)OC)[C@H](OC(C)=O)[C@]5(CC)C=CCN6CC[C@]43[C@@H]65)C2)C1 [vinblastine] | slight selectivity | – | – | – | – | – |
| COc1cc2ncnc(Nc3cccc(Cl)c3)c2cc1OC [AG-1478, Tyrphostin AG1478] | – | – | – | – | – | sensitivity in 3D spheroids [2]: decreased sensitivity |
| Cc1nc(Nc2ncc(C(=O)Nc3c(C)cccc3Cl)s2)cc(N2CCN(CCO)CC2)n1 [dasatinib] | – | only under 2D culture conditions | < 10 | hits under both 2D and 3D culture conditions | – | EC50 (BT-474 cells [4]; Homo sapiens, BT-474, read-out: calculated EC50 values in confirmatory dose response assays, BT-474, culture condition (2D/3D) not given): 6 to 8 µM; EC50 (BT-474 cells [4]; read-out: EC50 (concentration at which the compound reduces cell viability by 50%), BT-474 3D spheroid, 48 h treatment): 8.1 µM |
| COc1cc2ncnc(Nc3ccc(F)c(Cl)c3)c2cc1OCCCN1CCOCC1 [gefitinib] | – | only under 2D culture conditions | – | hits under both 2D and 3D culture conditions | – | – |
| CCC1=C[C@@H]2CN(C1)Cc1c([nH]c3ccccc13)[C@@](C(=O)OC)(c1cc3c(cc1OC)N(C)[C@H]1[C@@](O)(C(=O)OC)[C@H](OC(C)=O)[C@]4(CC)C=CCN5CC[C@]31[C@@H]54)C2 [vinorelbine] | slight selectivity | we did not identify vinorelbine as a “hit” | 5.2 | – | > 100 | – |
| CS(=O)(=O)CCNCc1ccc(-c2ccc3ncnc(Nc4ccc(OCc5cccc(F)c5)c(Cl)c4)c3c2)o1 [lapatinib] | – | only under 2D culture conditions | – | hits under both 2D and 3D culture conditions | > 5 | fold less sensitive than BT-474 cancer cell spheroids (HF+HE co-cultures; HF+HE spheroids, 3D, Figure S1A): 100 fold; EC50 (HF+HE co-cultures; HF+HE 2D co-culture): 2.7 µM; EC50 (HF+HE co-cultures; HF+HE 3D co-culture): 30 µM; fold less sensitive than BT-474 cancer cell spheroids [6]: 10 fold; sensitivity of BT-474 spheroids compared to BT-474+HF+HE co-cultures (BT-474 cells [4]; 3D spheroids): more sensitive; EC50 (MCF-10A cells [5]): 9.8 µM; difference in sensitivity between 3D BT-474+HF+HE and 3D HF+HE co-cultures (BT-474+HF+HE co-cultures; 3D, ratio of EC50 values): about 30 fold; EC50 (BT-474+HF+HE co-cultures; BT-474+HF+HE 2D co-culture): 3.5 µM; EC50 (BT-474+HF+HE co-cultures; BT-474+HF+HE 3D co-culture): 0.9 µM |
